Here are results for 23 compounds from PubChem BioAssay (NCI).

Common to all, as to assay: DTP human tumour cell line panel, 48 h
The test system of test [1] is NCI-H460 lung.
For test [2], the system named is SK-OV-3 ovarian.
The subject of test [3] is HCC-2998 colon.
Test [4] deals with UACC-257 melanoma.
The subject of test [5] is SF-539 CNS.
The subject of test [6] is NCI-H226 lung.
The test system of test [7] is SF-295 CNS.
For test [8], the system named is 786-0 renal.
Test [9] deals with TK-10 renal.
For test [10], the system named is RPMI-8226 leukemia.

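Each compound was tested at five concentrations against cells in 96-well plates for 48 hours. Here, GI50 denotes the concentration required for 50% inhibition of growth. TGI: concentration producing complete growth inhibition.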

`C=C1C(=O)OC2CC3(C)CCCC(C)C3=CC12` (stereo not drawn): the TGI in test [1] was determined as 13.7 µM; in [2], 56.1 µM; in [3], 16.2 µM; in [4], 18.1 µM; in [5], 3.79 µM; in test [6], 30.3 µM. Moreover, the TGI in test [7] is 26.3 µM; in test [8], 11.6 µM; in test [9] it was 10.1 µM.

On to `N#Cc1cc(NC(=O)c2ccccc2)c(=O)n2c1[nH]c1ccccc12`, for which the TGI in [1] was above 100 µM; in test [2], 90.4 µM; in test [3], above 100 µM; in test [4], above 100 µM; in test [10], 38.3 µM; in test [5], 84.4 µM. Further, the TGI was above 100 µM in test [7], above 100 µM in test [8] and 89.2 µM in test [9].

Turning to `CC(O[Si](c1ccccc1)(c1ccccc1)C(C)(C)C)[C@H](NC(=O)OC(C)(C)C)C(=O)O` (stereo partly drawn), the TGI in [1], in test [2], in test [3], in [4], in test [10] and in test [7] was above 100 µM in each case. The TGI in test [8] and in test [9] was above 100 µM in each case.

As to `COc1ccc(CNc2cnc3cc(N)cc(N)c3n2)cc1`, the GI50 in [1] is 33.8 µM; in test [2] it was 82.1 µM; in test [3], 14.3 µM; in test [4] it was 21.4 µM; in test [10], 23 µM; in [5], 21.7 µM. In addition, the GI50 is 21.9 µM in test [7], 17.2 µM in [8] and 27 µM in test [9]. For the same compound, the TGI in test [1] was above 100 µM; in test [2], above 100 µM; in [3], 28 µM; in test [4], 39.7 µM; in test [10], 82.3 µM; in test [5], 39.4 µM. In addition, the TGI in test [7] is 55.9 µM; in test [8], 31.6 µM; in [9] it was 64.2 µM.

Turning to `O=C(Nc1cccc(Cl)c1)c1cc(N=Nc2ccc([N+](=O)[O-])cc2Cl)ccc1O`, the GI50 is 2.74 µM in test [1]; 1.94 µM in test [2]; 1.95 µM in test [3]; 2.55 µM in [4]; 2.41 µM in [5]; 2.88 µM in [6]. The figures for the GI50 in [7], in test [8] and in [9] were 1.49 µM, 2.93 µM and 2.24 µM, respectively. The TGI in test [1] was 7.92 µM; in test [2], 6.63 µM; in test [3], 5.53 µM; in [4], 6.52 µM; in test [5], 8.61 µM; in [6], 16.6 µM. The TGI in test [7] came to 3.22 µM; in [8] it was 8.27 µM; in [9], 6.92 µM.

For `C=C1C(=O)OC2C1C(OC(=O)/C(C)=C\C)CC1(CO1)C1C(O)C=C(C)C21O` (stereo not drawn), the TGI in test [1] amounted to 29.4 µM; in test [2] it was 30.5 µM; in test [3], 15.1 µM; in [4] it was 21.7 µM; in [10], 22.2 µM; in test [5], 8.06 µM. The TGI worked out at 41.7 µM in test [7], 8.5 µM in test [8] and 9.35 µM in [9].

For `COc1ccc(C[C@H](N)C(=O)N2C[C@@H](CO)C[C@@H](n3cnc4c(N(C)C)ncnc43)C2)cc1`, the TGI in test [1], in test [2], in test [4], in test [10], in test [5] and in test [7] was above 100 µM in each case. Also, the TGI in test [8] and in test [9] was above 100 µM in each case.

`CN(C)CCC1(C2=CCCC2)CC/C(=C\c2ccccc2Cl)C1=O` (stereo not drawn): the TGI was 31 µM in test [1]; 22.1 µM in [3]; 28.4 µM in test [4]; above 100 µM in test [10]; 28.9 µM in [5]; 27.9 µM in test [7]. The TGI in [8] stood at 25.7 µM; in test [9], 33.5 µM.

On to `CCOC(=O)NC(=O)c1cn(CCN2CCNCC2)c(=O)[nH]c1=O`, for which the TGI in [1], in test [2], in test [10], in test [5], in [6] and in test [7] was above 100 µM each time. The TGI in [8] and in [9] was above 100 µM throughout.

For `COC(=O)C(C(=O)C(=O)Nc1ccc(OC)cc1[N+](=O)[O-])c1nc2cc(C)c(C)cc2[nH]c1=O` (stereo not drawn), the TGI in test [1], in [2], in [3], in [4], in test [5] and in test [6] was above 100 µM in each case. Further, the TGI in test [7], in [8] and in test [9] was above 100 µM in each case.

Take `Nc1ccc2c(c1)Oc1c(F)c(F)cc3c(=O)c(C(=O)O)cn-2c13`: the TGI in test [2], in [3], in [10], in [5], in test [8] and in test [9] was above 100 µM in each case.

With `CCCN1C(=O)/C(=C/c2ccc(O)cc2)SC1=Nc1ccc(OC)cc1`, the GI50 in test [1] was 17.6 µM; in test [2], 18.1 µM; in test [4], 17.3 µM; in [10], 12.4 µM; in [5], 16.2 µM; in [6], 32 µM. In addition, the results for the GI50 in [7], in test [8] and in test [9] were 14.7 µM, 16 µM and 18.4 µM, respectively. Further, the TGI in test [1] was determined as 66.7 µM; in test [2], 41.9 µM; in test [4] it was 31.7 µM; in test [10], 42 µM; in test [5], 33.1 µM; in [6], 95.5 µM. Moreover, the results for the TGI in [7], in test [8] and in test [9] were 34.9 µM, 34.6 µM and 39 µM, respectively.

As to `Cc1nc(Nc2ccccc2)sc1C(=O)CC(=O)C(=O)NC12CC3CC(CC(C3)C1)C2`, the TGI in test [1], in test [2], in [3], in [4], in test [5] and in test [6] was above 100 µM in each case. Besides, the concentration for total growth inhibition (TGI) in [7], in test [8] and in [9] was above 100 µM each time.

Turning to `CO[C@@H]1[C@H]2[C@@H](C)c3ccoc3C[C@@H]2[C@@]2(C)CC[C@H](OC(=O)c3ccccc3)[C@](C)(C(=O)O)[C@]2(O)[C@@H]1OC(=O)c1ccccc1`, the GI50 was 13.4 µM in test [1]; 15.9 µM in test [4]; 15.4 µM in test [10]; 8.81 µM in test [5]; 9.77 µM in test [6]; 10.3 µM in [7]. In addition, the GI50 in test [8] was 15.8 µM; in test [9], 14.3 µM. Besides, the TGI in test [1] is above 50 µM; in test [4] it was 40.7 µM; in test [10], above 50 µM; in test [5] it was 16.5 µM; in [6], 26.7 µM; in [7], 41.4 µM. The TGI in [8] and in test [9] was above 50 µM throughout.

Consider `COc1cc(CC(C(=O)O)C(=O)O)c(OC)cc1CC(C(=O)O)C(=O)O`, for which the TGI in test [1], in test [2], in [4], in test [10], in [5] and in test [6] was above 100 µM throughout. In addition, the TGI in [7], in [8] and in test [9] was above 100 µM throughout.

With `Cc1cn2c(/C=C3/C(=O)Nc4ccc(F)cc43)c(C)nc2s1`, the GI50 in test [1] was 2.4 µM; in [2] it was 10.6 µM; in [4], 36.2 µM; in test [10] it was 20.3 µM; in [5], 7.29 µM; in test [6], 17.1 µM. Further, the results for the GI50 in [7], in test [8] and in [9] were 3.76 µM, 14.4 µM and 22.2 µM, respectively. Also, the TGI in test [1] is above 50 µM; in [2] it was above 50 µM; in test [4], above 50 µM; in [10] it was above 50 µM; in [5], 18.4 µM; in [6] it was above 50 µM. The TGI in test [7] is 34.6 µM; in [8], above 50 µM; in test [9], above 50 µM.

On to `O=C(NNC(=S)Nc1ccccc1)c1ccccn1`, for which the GI50 in test [1] is 1.06 µM; in test [2], 7.33 µM; in [4] it was 2.53 µM; in [10] it was 2.69 µM; in test [5], 2.43 µM; in test [6] it was 3.3 µM. Also, the figures for the GI50 in test [7] and in test [8] were 1.97 µM and 2.81 µM, respectively. The TGI was above 100 µM in [1]; above 100 µM in [2]; 21.2 µM in test [4]; 38.4 µM in [10]; 20.8 µM in test [5]; above 100 µM in test [6]. Further, the TGI in test [7] and in [8] was above 100 µM each time.

Turning to `Nc1nc(N)c(N=Nc2ccc(C(=O)O)c(O)c2)c(N)n1`, the TGI in test [1], in [2], in [4], in test [10], in [5] and in test [6] was above 100 µM each time. Besides, the TGI in test [7], in test [8] and in test [9] was above 100 µM each time.

Consider `COc1ccc2c(c1)C(=O)c1c-2n(CCCN)c(=O)c2cc(OC)c(OC)cc12`, for which the GI50 is below 0.01 µM in test [1]; 0.499 µM in test [2]; 0.109 µM in [3]; 3.58 µM in test [4]; 0.164 µM in test [5]; below 0.01 µM in test [7]. Also, the results for the GI50 in test [8] and in [9] were 0.146 µM and 1.45 µM, respectively. In addition, the TGI in test [1] was above 100 µM; in test [2], 10.7 µM; in test [3] it was 0.294 µM; in test [4], 19.3 µM; in test [5], 1.29 µM; in [7], 1.04 µM. In addition, the results for the TGI in test [8] and in [9] were 0.445 µM and 2.99 µM, respectively.

Regarding `Cn1nc(-c2ccccc2)c(C(=O)/C=C/c2ccc(F)cc2)c(N2CCOCC2)c1=O`, the TGI in test [1] was 78.2 µM; in test [2] it was above 100 µM; in [10], 23.2 µM; in test [5], 36.3 µM; in test [7] it was 32.4 µM; in test [8], 36.2 µM. Besides, the TGI in test [9] worked out at 97.5 µM.

With `CCOC(=O)C1SC(=Nc2ccc(Cl)cc2C)N=C1C` (stereo not drawn), the TGI in [1] was determined as 54.2 µM; in test [3] it was 47.9 µM; in [4] it was 51.9 µM; in [5] it was 34.5 µM; in [6], 63.5 µM; in test [7], 52.9 µM. Further, the TGI in [8] was found to be 32.6 µM; in [9], 65.2 µM.

With `CC(=O)O[C@H]1C(=O)[C@@]2(C)[C@H]([C@H](OC(=O)c3ccccc3)[C@@]3(O)C[C@H](O)C(C)=C1C3(C)C)[C@]1(OC(C)=O)CO[C@@H]1C[C@@H]2O`, the TGI is above 100 µM in test [1]; 69.1 µM in test [2]; above 100 µM in test [4]; above 100 µM in [10]; above 100 µM in test [5]; above 100 µM in test [6]. For the same compound, the TGI in test [7], in test [8] and in [9] was above 100 µM each time.

`CCC[CH2][Sn]([CH2]CCC)([O]C(=O)c1cc(F)cc(F)c1)[O][Sn]([CH2]CCC)([CH2]CCC)[O]C(=O)c1cc(F)cc(F)c1`: the GI50 in test [1] is 2.67 µM; in test [2], 3.04 µM; in test [3], 1.71 µM; in [4] it was 1.11 µM; in test [5] it was 1.34 µM; in [6], 1.45 µM. Further, the GI50 was 1.67 µM in test [7], 1.27 µM in test [8] and 1.41 µM in [9]. Besides, the TGI in [1] is 6.74 µM; in test [2] it was 8.38 µM; in [3] it was 3.32 µM; in test [4], 2.34 µM; in test [5], 2.8 µM; in [6], 2.81 µM. Besides, the TGI in [7] came out at 3.06 µM; in test [8], 2.53 µM; in test [9], 2.72 µM.

The TGI is the concentration giving total growth inhibition. A lower TGI goes with more potent growth arrest. In general, GI50 refers to the concentration that inhibits growth by half.
